Experimental findings from ChEMBL document CHEMBL1133731, “Novel potent ligands for the central nicotinic acetylcholine receptor: synthesis, receptor binding, and 3D-QSAR analysis” (J Med Chem, 2000) are described below.

Each structure is given as a SMILES string.

For the first assay, the target named is T1, Neuronal acetylcholine receptor; alpha4/beta2 (Rattus norvegicus, UniProt P09483+P12390). Description: In vitro binding affinity for Nicotinic acetylcholine receptor alpha4-beta2 in rat cerebral cortical membrane using [3H]cytisine as radioligand. It counts as cell membranes.
T1 sequence (P09483 whole entry): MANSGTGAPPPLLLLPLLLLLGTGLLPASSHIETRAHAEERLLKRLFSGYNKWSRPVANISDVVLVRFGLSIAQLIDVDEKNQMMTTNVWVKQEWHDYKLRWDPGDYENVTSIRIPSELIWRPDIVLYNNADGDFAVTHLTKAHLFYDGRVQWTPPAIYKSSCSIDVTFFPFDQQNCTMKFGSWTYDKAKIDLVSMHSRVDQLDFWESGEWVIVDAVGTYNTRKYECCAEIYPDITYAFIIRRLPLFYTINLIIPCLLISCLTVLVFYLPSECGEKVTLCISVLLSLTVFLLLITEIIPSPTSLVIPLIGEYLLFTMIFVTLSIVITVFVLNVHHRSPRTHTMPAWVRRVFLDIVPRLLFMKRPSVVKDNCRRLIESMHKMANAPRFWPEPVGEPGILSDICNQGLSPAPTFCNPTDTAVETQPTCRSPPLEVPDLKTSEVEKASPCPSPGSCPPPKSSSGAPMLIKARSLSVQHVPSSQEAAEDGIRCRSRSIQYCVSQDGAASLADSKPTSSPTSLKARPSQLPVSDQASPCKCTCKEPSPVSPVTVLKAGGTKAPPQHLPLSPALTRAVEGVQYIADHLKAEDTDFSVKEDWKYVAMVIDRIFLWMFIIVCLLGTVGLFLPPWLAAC
T1 sequence (P12390 whole entry): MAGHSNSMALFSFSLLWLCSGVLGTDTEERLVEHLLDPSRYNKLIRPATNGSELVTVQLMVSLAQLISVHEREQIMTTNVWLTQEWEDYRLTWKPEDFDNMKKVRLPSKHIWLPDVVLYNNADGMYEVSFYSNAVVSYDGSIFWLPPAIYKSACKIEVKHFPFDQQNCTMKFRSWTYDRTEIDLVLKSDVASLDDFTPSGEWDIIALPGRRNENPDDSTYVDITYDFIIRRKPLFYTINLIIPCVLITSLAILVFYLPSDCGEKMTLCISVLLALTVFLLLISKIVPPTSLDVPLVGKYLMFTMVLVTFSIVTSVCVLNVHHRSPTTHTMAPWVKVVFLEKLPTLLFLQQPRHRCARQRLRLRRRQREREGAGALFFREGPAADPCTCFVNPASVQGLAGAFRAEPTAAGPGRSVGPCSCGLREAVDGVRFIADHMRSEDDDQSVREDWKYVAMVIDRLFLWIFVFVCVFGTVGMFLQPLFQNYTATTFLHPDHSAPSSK
Details: not given
A word on the IC50: it is the concentration that gives 50% inhibition. `c1cncc(OC[C@@H]2CCN2)c1` came in with an IC50 of 1.5 nM.

Still in this assay, the particulars now being: read-out: IC50.
Take `COc1cncc(N2CCCNCC2)c1`: the IC50 was determined as 1.9 nM.

Consider `CC(C)COc1cncc(N2CCCNCC2)c1`, for which the IC50 is 2.2 nM.

For the compound `c1cncc(-c2cncc(N3CCCNCC3)c2)c1`, the IC50 turned out to be 2.8 nM.

As for `C1=CC(CSc2cncc(N3CCCNCC3)c2)C=C1`, the IC50 amounted to 8 nM.

Turning to `Nc1cccc(-c2cncc(N3CCCNCC3)c2)c1`, the IC50 was determined as 4 nM.

For the compound `OCCOc1cncc(N2CCCNCC2)c1`, the IC50 turned out to be 1.8 nM.

For the compound `COc1ccc(N2CCCNCC2)cn1`, the IC50 was 170 nM.

As to `Clc1cncc(OC2CCNC2)c1` (configuration not stated), the IC50 was found to be 220 nM.

For `C1=C(c2cccnc2)CC2CCC1N2` (configuration not stated), the IC50 was 6.7 nM.

Regarding `c1ccc(Sc2cncc(N3CCCNCC3)c2)cc1`, the IC50 worked out at 4 nM.

As to `CCSc1ccc(N2CCCNCC2)cn1`, the IC50 stood at 170 nM.

For the compound `Oc1cncc(N2CCCNCC2)c1`, the IC50 was 2.4 nM.

On to `c1cncc(OC2CCNC2)c1` (configuration not stated), for which the concentration for half-maximal inhibition (IC50) was found to be 100 nM.

As for `COc1cc(N2CCCNCC2)cnc1OC`, the IC50 came out at 170 nM.

In the case of `c1ccc2nc(-c3cncc(N4CCCNCC4)c3)ccc2c1`, the IC50 turned out to be 6.6 nM.

Take `c1cncc(OC2CCCNC2)c1` (configuration not stated): the IC50 came out at 190 nM.

Turning to `NC(=O)c1cncc(N2CCCNCC2)c1`, the IC50 came to 20 nM.

For the compound `COCCOc1cncc(N2CCCNCC2)c1`, the IC50 was 2.4 nM.

Another assay has as its target T1, Neuronal acetylcholine receptor; alpha4/beta2. Description: In vitro binding affinity for Nicotinic acetylcholine receptor alpha4-beta2 (alpha4 beta-2 subtype of nAChRs) in rat cerebral cortical membrane using [3H]-cytisine as radioligand. It counts as cell membranes.
Details: not given
On to `CCOc1cc(N2CCCNCC2)cnc1Br`, for which the IC50 came to 0.87 nM.

`C=COc1cncc(N2CCCNCC2)c1` showed an IC50 of 5 nM.

`COc1cc(N2CCCNCC2)cnc1Cl`: the IC50 is 0.68 nM.
